Earlier results as cited in patent US6825382B2, “Trifluoromethylepinephrine compounds and methods of making and using thereof” (The United States of America as represented by the …, priority 2002, dated 2004).
Where two headings read alike, the source gives them in different places.

Columns and labels:
[1] = 1a versus 1b

Structure (SMILES) | biological activity of (R)-enantiomer relative to (S)-enantiomer [1] | epinephrine remaining, of the initial concentration (dental preparations stored under clinical conditions) | epinephrine remaining, of the initial concentration (dental preparations stored under optimal conditions) [%]
CNC[C@H](O)c1ccc(O)c(O)c1 [1a, (−)-epinephrine] | 15-20 times |  | 
CNC[C@H](O)c1ccc(O)c(O)c1 [epinephrine] |  | less than 70% | 85 to 90
